US20020137929A1, “1 - (3-heterocyclylphenyl) isothiourea, -isourea, -guanidine and -amidine herbicidal agents” (Intellectual Property Department, BASF Aktiengesellschaft, priority 1998, published 2002)

Legend:
[1] = test system: CHEAL (Lambsquarters, Common); experiment: Preemergence herbicidal evaluation; type: in vivo, Chenopodium album; conditions: rated 4-5 weeks after treatment
In short: (§1)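 Each species is sown separately in potting soil over roughly an inch of soil before any emergence. The soil surface then receives an aqueous acetone spray delivering about 0.0156 to 0.500 kg/ha of compound. After four to five weeks, injury is scored from 0 to 9 relative to a control.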

[2] = test system: TRZAWR (Wheat, Winter, cv Riband); experiment: Preemergence herbicidal evaluation; type: in vivo, Triticum aestivum; conditions: rated 4-5 weeks after treatment
In short: as §1

[3] = test system: ABUTH (Velvetleaf); experiment: Postemergence herbicidal evaluation; type: in vivo, Abutilon theophrasti
In short: (§2)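 Compound is applied as a foliar spray to seedlings about two weeks old, formulated in equal parts acetone and water with 0.5% TWEEN 20 and delivered at 40 psi to give about 0.0156–0.500 kg per hectare. Injury is rated visually 0–9 after four to five weeks.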

[4] = test system: ECHORC (Watergrass (Calif.)); experiment: Preemergence weed control under flooded paddy conditions; type: in vivo, Echinochloa oryzoides; conditions: rated 3-4 weeks after treatment
In short: (§3)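 Ratings on a 0-9 visual scale cover stand, vigor, malformation, size, chlorosis and overall appearance relative to a control, taken three to four weeks post-treatment. Application was into flood water over freshly sown silt loam at roughly 0.0313 to 0.500 kg/ha.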

[5] = test system: CYPIR (Rice Flatsedge); experiment: Postemergence weed control under flooded paddy conditions; type: in vivo, Cyperus iria; conditions: postemergence weeds, 3-4 weeks after treatment
In short: (§4)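 Injury ratings (0–9 scale covering stand, vigor, malformation, size, chlorosis and overall appearance versus control) were made three to four weeks after treatment. Test material, about 0.0313 to 0.500 kg/ha a.i. in 50/50 v/v aqueous/acetone, was added to flood water 1.5 to 3 cm deep over 3 to 5 cm weeds and 1.5 to 2.5 leaf rice.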

[6] = test system: IPOHE (Morningglory, Ivyleaf); experiment: Preemergence herbicidal evaluation; type: in vivo, Ipomoea hederacea; conditions: rated 4-5 weeks after treatment
In short: as §1

[7] = test system: MOOVA (Monochoria); experiment: Preemergence weed control under flooded paddy conditions; type: in vivo, Monochoria vaginalis; conditions: rated 3-4 weeks after treatment
In short: as §3

[8] = test system: SETVI (Foxtail, Green); experiment: Preemergence herbicidal evaluation; type: in vivo, Setaria viridis; conditions: rated 4-5 weeks after treatment
In short: as §1

[9] = test system: ECHCG (Barnyardgrass); experiment: Preemergence herbicidal evaluation; type: in vivo, Echinochloa crus-galli; conditions: rated 4-5 weeks after treatment
In short: as §1

[10] = test system: TRZAWR (Wheat, Winter, cv Riband); experiment: Postemergence herbicidal evaluation; type: in vivo, Triticum aestivum
In short: as §2

[11] = test system: IPOHE (Morningglory, Ivyleaf); experiment: Postemergence herbicidal evaluation; type: in vivo, Ipomoea hederacea
In short: as §2

[12] = test system: ORYSAT (Rice, Tebonnet); experiment: Preemergence herbicidal evaluation; type: in vivo, Oryza sativa, (L.) Tebonnet; conditions: rated 4-5 weeks after treatment
In short: as §1

[13] = test system: ECHORC (Watergrass (Calif.)); experiment: Postemergence weed control under flooded paddy conditions; type: in vivo, Echinochloa oryzoides; conditions: postemergence weeds, 3-4 weeks after treatment
In short: as §4

## C[C@@H](C(=O)O)N1C(=O)CS/C1=N/c1cc(-n2c(=O)cc(C(F)(F)F)n(C)c2=O)c(F)cc1Cl [Compound 51, 2-{{2-Chloro-5-[3,6-dihydro-3-methyl-2,6-dioxo-4-(trifluoromethyl)-1(2H)-pyrimidinyl]-4-fluoro-phenyl}imino}-α-methyl-4-oxo-3-thiazolidineacetic acid, L-]
[1]; rate 0.0156 kg/ha
  Preemergence herbicidal rating CHEAL: 3.0
[1]; rate 0.0313 kg/ha
  Preemergence herbicidal rating CHEAL: 9.0
[1]; rate 0.0625 kg/ha
  Preemergence herbicidal rating CHEAL: 9.0
[1]; rate 0.1250 kg/ha
  Preemergence herbicidal rating CHEAL: 9.0
[1]; rate 0.2500 kg/ha
  Preemergence herbicidal rating CHEAL: 9.0
[2]; rate 0.0156 kg/ha
  Preemergence herbicidal rating TRZAWR: 0.0
[2]; rate 0.0313 kg/ha
  Preemergence herbicidal rating TRZAWR: 0.0
[2]; rate 0.0625 kg/ha
  Preemergence herbicidal rating TRZAWR: 0.0
[2]; rate 0.1250 kg/ha
  Preemergence herbicidal rating TRZAWR: 2.0
[2]; rate 0.2500 kg/ha
  Preemergence herbicidal rating TRZAWR: 6.0
[3]; Rate 0.0158 kg/ha
  Postemergence herbicidal rating ABUTH: 9.0
[3]; Rate 0.0315 kg/ha
  Postemergence herbicidal rating ABUTH: 9.0
[3]; Rate 0.0630 kg/ha
  Postemergence herbicidal rating ABUTH: 9.0
[4]; 0.0625 kg/ha
  Herbicidal rating ECHORC: 0.0
[4]; 0.1250 kg/ha
  Herbicidal rating ECHORC: 0.0
[4]; 0.2500 kg/ha
  Herbicidal rating ECHORC: 0.0
[5]; rate 0.0625 kg/ha
  Herbicidal rating CYPIR: 2.0
[5]; rate 0.1250 kg/ha
  Herbicidal rating CYPIR: 3.0
[5]; rate 0.2500 kg/ha
  Herbicidal rating CYPIR: 6.0
[6]; rate 0.0156 kg/ha
  Preemergence herbicidal rating IPOHE: 2.0
[6]; rate 0.0313 kg/ha
  Preemergence herbicidal rating IPOHE: 9.0
[6]; rate 0.0625 kg/ha
  Preemergence herbicidal rating IPOHE: 9.0
[6]; rate 0.1250 kg/ha
  Preemergence herbicidal rating IPOHE: 9.0
[6]; rate 0.2500 kg/ha
  Preemergence herbicidal rating IPOHE: 9.0
[7]; 0.0625 kg/ha
  Herbicidal rating MOOVA: 3.0
[7]; 0.1250 kg/ha
  Herbicidal rating MOOVA: 4.0
[7]; 0.2500 kg/ha
  Herbicidal rating MOOVA: 4.0
[8]; rate 0.0156 kg/ha
  Preemergence herbicidal rating SETVI: 1.0
[8]; rate 0.0313 kg/ha
  Preemergence herbicidal rating SETVI: 0.0
[8]; rate 0.0625 kg/ha
  Preemergence herbicidal rating SETVI: 3.0
[8]; rate 0.1250 kg/ha
  Preemergence herbicidal rating SETVI: 6.0
[8]; rate 0.2500 kg/ha
  Preemergence herbicidal rating SETVI: 9.0
[9]; rate 0.0156 kg/ha
  Preemergence herbicidal rating ECHCG: 0.0
[9]; rate 0.0313 kg/ha
  Preemergence herbicidal rating ECHCG: 0.0
[9]; rate 0.0625 kg/ha
  Preemergence herbicidal rating ECHCG: 1.0
[9]; rate 0.1250 kg/ha
  Preemergence herbicidal rating ECHCG: 1.0
[9]; rate 0.2500 kg/ha
  Preemergence herbicidal rating ECHCG: 1.0
[10]; Rate 0.0158 kg/ha
  Postemergence herbicidal rating TRZAWR: 4.0
[10]; Rate 0.0315 kg/ha
  Postemergence herbicidal rating TRZAWR: 5.5
[10]; Rate 0.0630 kg/ha
  Postemergence herbicidal rating TRZAWR: 7.0
[11]; Rate 0.0158 kg/ha
  Postemergence herbicidal rating IPOHE: 9.0
[11]; Rate 0.0315 kg/ha
  Postemergence herbicidal rating IPOHE: 9.0
[11]; Rate 0.0630 kg/ha
  Postemergence herbicidal rating IPOHE: 9.0
[12]; rate 0.0156 kg/ha
  Preemergence herbicidal rating ORYSAT: 0.0
[12]; rate 0.0313 kg/ha
  Preemergence herbicidal rating ORYSAT: 1.0
[12]; rate 0.0625 kg/ha
  Preemergence herbicidal rating ORYSAT: 1.0
[12]; rate 0.1250 kg/ha
  Preemergence herbicidal rating ORYSAT: 1.0
[12]; rate 0.2500 kg/ha
  Preemergence herbicidal rating ORYSAT: 7.0
[13]; rate 0.0625 kg/ha
  Herbicidal rating ECHORC: 0.0
[13]; rate 0.1250 kg/ha
  Herbicidal rating ECHORC: 0.0
[13]; rate 0.2500 kg/ha
  Herbicidal rating ECHORC: 0.0

## CCOC(=O)CN1C(=O)C(CC(=O)OC)S/C1=N/c1cc(-n2c(=O)cc(C(F)(F)F)n(C)c2=O)c(F)cc1Cl (stereo not drawn) [Compound 54, 2-{{2-Chloro-5-[3,6-dihydro-3-methyl-2,6-dioxo-4-(trifluoromethyl)-1(2H)-pyrimidinyl]-4-fluorophenyl}imino}-4-oxo-3,5-thiazolidinediacetic acid, 3-ethyl methyl ester]
[1]; rate 0.0156 kg/ha
  Preemergence herbicidal rating CHEAL: 4.5
[1]; rate 0.0313 kg/ha
  Preemergence herbicidal rating CHEAL: 9.0
[1]; rate 0.0625 kg/ha
  Preemergence herbicidal rating CHEAL: 9.0
[1]; rate 0.1250 kg/ha
  Preemergence herbicidal rating CHEAL: 9.0
[1]; rate 0.2500 kg/ha
  Preemergence herbicidal rating CHEAL: 9.0
[1]; rate 0.5000 kg/ha
  Preemergence herbicidal rating CHEAL: 9.0
[2]; rate 0.0156 kg/ha
  Preemergence herbicidal rating TRZAWR: 0.0
[2]; rate 0.0313 kg/ha
  Preemergence herbicidal rating TRZAWR: 0.0
[2]; rate 0.0625 kg/ha
  Preemergence herbicidal rating TRZAWR: 0.0
[2]; rate 0.1250 kg/ha
  Preemergence herbicidal rating TRZAWR: 1.0
[2]; rate 0.2500 kg/ha
  Preemergence herbicidal rating TRZAWR: 3.0
[3]; Rate 0.0158 kg/ha
  Postemergence herbicidal rating ABUTH: 9.0
[3]; Rate 0.0315 kg/ha
  Postemergence herbicidal rating ABUTH: 9.0
[3]; Rate 0.0630 kg/ha
  Postemergence herbicidal rating ABUTH: 9.0
[4]; 0.0313 kg/ha
  Herbicidal rating ECHORC: 5.0
[4]; 0.0625 kg/ha
  Herbicidal rating ECHORC: 5.0
[4]; 0.1250 kg/ha
  Herbicidal rating ECHORC: 7.0
[4]; 0.2500 kg/ha
  Herbicidal rating ECHORC: 9.0
[5]; rate 0.0313 kg/ha
  Herbicidal rating CYPIR: 0.0
[5]; rate 0.0625 kg/ha
  Herbicidal rating CYPIR: 4.0
[5]; rate 0.1250 kg/ha
  Herbicidal rating CYPIR: 4.0
[5]; rate 0.2500 kg/ha
  Herbicidal rating CYPIR: 4.0
[6]; rate 0.0156 kg/ha
  Preemergence herbicidal rating IPOHE: 1.5
[6]; rate 0.0313 kg/ha
  Preemergence herbicidal rating IPOHE: 6.0
[6]; rate 0.0625 kg/ha
  Preemergence herbicidal rating IPOHE: 9.0
[6]; rate 0.1250 kg/ha
  Preemergence herbicidal rating IPOHE: 7.5
[6]; rate 0.2500 kg/ha
  Preemergence herbicidal rating IPOHE: 9.0
[6]; rate 0.5000 kg/ha
  Preemergence herbicidal rating IPOHE: 9.0
[7]; 0.0313 kg/ha
  Herbicidal rating MOOVA: 0.0
[7]; 0.0625 kg/ha
  Herbicidal rating MOOVA: 0.0
[7]; 0.1250 kg/ha
  Herbicidal rating MOOVA: 6.0
[7]; 0.2500 kg/ha
  Herbicidal rating MOOVA: 6.0
[8]; rate 0.0156 kg/ha
  Preemergence herbicidal rating SETVI: 1.0
[8]; rate 0.0313 kg/ha
  Preemergence herbicidal rating SETVI: 2.0
[8]; rate 0.0625 kg/ha
  Preemergence herbicidal rating SETVI: 3.5
[8]; rate 0.1250 kg/ha
  Preemergence herbicidal rating SETVI: 7.0
[8]; rate 0.2500 kg/ha
  Preemergence herbicidal rating SETVI: 9.0
[8]; rate 0.5000 kg/ha
  Preemergence herbicidal rating SETVI: 9.0
[9]; rate 0.0156 kg/ha
  Preemergence herbicidal rating ECHCG: 0.0
[9]; rate 0.0313 kg/ha
  Preemergence herbicidal rating ECHCG: 0.0
[9]; rate 0.0625 kg/ha
  Preemergence herbicidal rating ECHCG: 0.0
[9]; rate 0.1250 kg/ha
  Preemergence herbicidal rating ECHCG: 2.0
[9]; rate 0.2500 kg/ha
  Preemergence herbicidal rating ECHCG: 5.0
[9]; rate 0.5000 kg/ha
  Preemergence herbicidal rating ECHCG: 9.0
[10]; Rate 0.0158 kg/ha
  Postemergence herbicidal rating TRZAWR: 5.0
[10]; Rate 0.0315 kg/ha
  Postemergence herbicidal rating TRZAWR: 7.0
[10]; Rate 0.0630 kg/ha
  Postemergence herbicidal rating TRZAWR: 9.0
[11]; Rate 0.0158 kg/ha
  Postemergence herbicidal rating IPOHE: 9.0
[11]; Rate 0.0315 kg/ha
  Postemergence herbicidal rating IPOHE: 9.0
[11]; Rate 0.0630 kg/ha
  Postemergence herbicidal rating IPOHE: 9.0
[12]; rate 0.0156 kg/ha
  Preemergence herbicidal rating ORYSAT: 0.0
[12]; rate 0.0313 kg/ha
  Preemergence herbicidal rating ORYSAT: 0.0
[12]; rate 0.0625 kg/ha
  Preemergence herbicidal rating ORYSAT: 1.0
[12]; rate 0.1250 kg/ha
  Preemergence herbicidal rating ORYSAT: 2.0
[12]; rate 0.2500 kg/ha
  Preemergence herbicidal rating ORYSAT: 4.5
[12]; rate 0.5000 kg/ha
  Preemergence herbicidal rating ORYSAT: 6.0
[13]; rate 0.0313 kg/ha
  Herbicidal rating ECHORC: 5.0
[13]; rate 0.0625 kg/ha
  Herbicidal rating ECHORC: 5.0
[13]; rate 0.1250 kg/ha
  Herbicidal rating ECHORC: 7.0
[13]; rate 0.2500 kg/ha
  Herbicidal rating ECHORC: 9.0
